According to ChEMBL document CHEMBL1909046, “DrugMatrix in vitro pharmacology data”:

Experiments:
Vasopressin V1a receptor = Vasopressin V1a receptor (Homo sapiens, UniProt P37288); assay type: cell membranes, Membrane; conditions: hek293; also: in other assays of this panel Not Active means under 50% inhibition at 10 µM
D(3) dopamine receptor = D(3) dopamine receptor (Homo sapiens, UniProt P35462); experiment: DRUGMATRIX: Dopamine D3 radioligand binding (ligand: [3H] Spiperone); assay type: cell membranes, CHO, Membrane; conditions: cho
[1] = target: Sodium-dependent dopamine transporter (Homo sapiens, UniProt Q01959); experiment: DRUGMATRIX: Dopamine Transporter radioligand binding (ligand: [125I] RTI-55); assay type: cell membranes, CHO-K1, Membrane; conditions: Not Active = under 50% inhibition at 10 µM; for Ki: read-out: Ki
Endothelin-1 receptor = target: T1, Endothelin-1 receptor (Homo sapiens, UniProt P25101); assay type: cell membranes, Membrane; conditions: cho-k1; also: in other assays of this panel Not Active means under 50% inhibition at 10 µM
T1 sequence (P25101 whole entry): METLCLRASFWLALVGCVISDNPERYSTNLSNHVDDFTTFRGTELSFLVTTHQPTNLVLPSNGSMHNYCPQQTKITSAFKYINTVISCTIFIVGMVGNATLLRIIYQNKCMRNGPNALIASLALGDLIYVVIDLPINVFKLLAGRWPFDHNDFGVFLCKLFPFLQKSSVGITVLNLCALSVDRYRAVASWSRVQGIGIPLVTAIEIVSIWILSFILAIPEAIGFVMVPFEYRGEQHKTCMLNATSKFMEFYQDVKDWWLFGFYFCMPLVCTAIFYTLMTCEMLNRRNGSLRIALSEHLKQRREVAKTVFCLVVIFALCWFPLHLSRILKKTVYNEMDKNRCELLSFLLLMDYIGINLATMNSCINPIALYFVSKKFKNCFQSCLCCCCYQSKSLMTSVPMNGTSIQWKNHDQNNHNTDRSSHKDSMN

[2] = DRUGMATRIX: Phorbol Ester radioligand binding (ligand: [3H] PDBu); assay type: cell membranes, Mus musculus, ICR, Brain, Membrane; conditions: Not Active = under 50% inhibition at 10 µM
Neutrophil elastase = target: T2, Neutrophil elastase (Homo sapiens, UniProt P08246); assay type: tissue-based;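 also: inhibition of neutrophil elastase enzyme activity, measured with a p-nitroanilide-linked peptide substrate; in other assays of this panel Not Active means under 50% inhibition at 10 µM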
T2 sequence (P08246 whole entry): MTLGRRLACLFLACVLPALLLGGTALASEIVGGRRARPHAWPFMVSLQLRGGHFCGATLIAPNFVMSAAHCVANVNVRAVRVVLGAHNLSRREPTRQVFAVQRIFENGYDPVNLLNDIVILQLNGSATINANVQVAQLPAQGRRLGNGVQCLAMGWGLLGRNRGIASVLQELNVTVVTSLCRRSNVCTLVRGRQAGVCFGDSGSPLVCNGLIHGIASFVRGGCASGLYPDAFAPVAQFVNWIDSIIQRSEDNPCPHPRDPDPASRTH

Chain of Sodium-dependent dopamine transporter (Q01959 whole entry): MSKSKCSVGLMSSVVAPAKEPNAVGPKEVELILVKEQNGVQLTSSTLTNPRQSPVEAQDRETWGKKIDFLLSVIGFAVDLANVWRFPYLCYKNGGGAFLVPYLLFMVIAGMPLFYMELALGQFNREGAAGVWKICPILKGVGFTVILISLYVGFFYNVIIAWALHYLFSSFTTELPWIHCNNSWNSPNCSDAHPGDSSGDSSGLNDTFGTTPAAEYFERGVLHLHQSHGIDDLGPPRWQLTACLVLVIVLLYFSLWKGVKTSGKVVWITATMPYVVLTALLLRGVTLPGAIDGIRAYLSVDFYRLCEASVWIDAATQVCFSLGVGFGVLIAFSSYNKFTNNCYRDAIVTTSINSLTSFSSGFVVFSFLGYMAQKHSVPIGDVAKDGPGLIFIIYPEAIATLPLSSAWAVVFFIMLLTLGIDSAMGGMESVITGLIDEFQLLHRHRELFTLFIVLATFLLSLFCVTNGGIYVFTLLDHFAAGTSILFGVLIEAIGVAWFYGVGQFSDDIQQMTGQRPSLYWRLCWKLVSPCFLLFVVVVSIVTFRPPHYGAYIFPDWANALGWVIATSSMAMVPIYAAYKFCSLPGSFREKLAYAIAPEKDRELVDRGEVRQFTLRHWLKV
Chain of Vasopressin V1a receptor (P37288 whole entry): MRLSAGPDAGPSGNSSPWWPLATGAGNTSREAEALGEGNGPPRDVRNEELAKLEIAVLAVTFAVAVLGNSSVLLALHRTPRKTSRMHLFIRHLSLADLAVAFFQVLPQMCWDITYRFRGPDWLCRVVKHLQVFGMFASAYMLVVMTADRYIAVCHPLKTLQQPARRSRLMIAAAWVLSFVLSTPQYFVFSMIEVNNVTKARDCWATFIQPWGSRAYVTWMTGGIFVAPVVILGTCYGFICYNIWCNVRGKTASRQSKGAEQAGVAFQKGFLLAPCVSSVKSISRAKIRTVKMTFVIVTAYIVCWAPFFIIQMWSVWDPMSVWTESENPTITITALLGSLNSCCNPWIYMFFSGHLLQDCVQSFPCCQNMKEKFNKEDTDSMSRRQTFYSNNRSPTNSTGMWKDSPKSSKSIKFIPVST
Chain of D(3) dopamine receptor (P35462 whole entry): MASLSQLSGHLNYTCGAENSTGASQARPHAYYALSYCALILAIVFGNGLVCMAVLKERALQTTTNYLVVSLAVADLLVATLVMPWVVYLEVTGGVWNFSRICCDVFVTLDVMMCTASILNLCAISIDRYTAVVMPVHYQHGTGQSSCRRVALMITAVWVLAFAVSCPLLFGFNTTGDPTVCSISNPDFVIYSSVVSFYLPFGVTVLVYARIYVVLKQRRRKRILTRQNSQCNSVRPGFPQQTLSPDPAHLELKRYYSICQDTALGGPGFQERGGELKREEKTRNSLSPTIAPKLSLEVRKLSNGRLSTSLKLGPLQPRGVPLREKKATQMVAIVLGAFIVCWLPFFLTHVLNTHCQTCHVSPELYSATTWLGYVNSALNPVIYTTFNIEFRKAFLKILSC

Nc1ccn([C@@H]2O[C@H](CO)[C@@H](O)C2(F)F)c(=O)n1 [GEMCITABINE]
IC50 (Vasopressin V1a receptor): Not Active
IC50 (D(3) dopamine receptor): Not Active
IC50 ([1]; cho-k1): Not Active
IC50 (Endothelin-1 receptor): Not Active
IC50 [2]: Not Active
Ki [2]: Not Active
IC50 (Neutrophil elastase): Not Active

CC(C)=CCC/C(C)=C/CO [GERANIOL]
IC50 (Vasopressin V1a receptor): Not Active
IC50 (D(3) dopamine receptor): Not Active
IC50 ([1]; cho-k1): Not Active
IC50 (Endothelin-1 receptor): Not Active
IC50 [2]: Not Active
Ki [2]: Not Active
IC50 (Neutrophil elastase): Not Active

N=C(N)NC(=O)Cc1c(Cl)cccc1Cl [GUANFACINE]
IC50 (Vasopressin V1a receptor): Not Active
IC50 (D(3) dopamine receptor): Not Active
IC50 ([1]; cho-k1): Not Active
IC50 (Endothelin-1 receptor): Not Active
IC50 [2]: Not Active
Ki [2]: Not Active
IC50 (Neutrophil elastase): Not Active

Oc1c(Cl)cc(Cl)c(Cl)c1Cc1c(O)c(Cl)cc(Cl)c1Cl [HEXACHLOROPHENE]
IC50 (Vasopressin V1a receptor): Not Active
IC50 (D(3) dopamine receptor): Not Active
IC50 ([1]; cho-k1): Not Active
IC50 (Endothelin-1 receptor): Not Active
IC50 [2]: Not Active
Ki [2]: Not Active
IC50 (Neutrophil elastase): Not Active

NNc1nncc2ccccc12 [HYDRALAZINE]
IC50 (Vasopressin V1a receptor): Not Active
IC50 (D(3) dopamine receptor): Not Active
IC50 ([1]; cho-k1): Not Active
IC50 (Endothelin-1 receptor): Not Active
IC50 [2]: Not Active
Ki [2]: Not Active
IC50 (Neutrophil elastase): Not Active

CC(=O)[C@@]1(O)CC[C@H]2[C@@H]3CCC4=CC(=O)CC[C@]4(C)[C@H]3CC[C@@]21C [HYDROXYPROGESTERONE]
IC50 (Vasopressin V1a receptor): Not Active
IC50 (D(3) dopamine receptor): Not Active
IC50 ([1]; read-out: IC50): 6.91 µM
Ki [1]: 5.49 µM
IC50 (Endothelin-1 receptor): Not Active
IC50 [2]: Not Active
Ki [2]: Not Active
IC50 (Neutrophil elastase): Not Active

COC1=C(OC)C(=O)C(CCCCCCCCCCO)=C(C)C1=O [IDEBENONE]
IC50 (Vasopressin V1a receptor): Not Active
IC50 (D(3) dopamine receptor): Not Active
IC50 ([1]; cho-k1): Not Active
IC50 (Endothelin-1 receptor): Not Active
IC50 [2]: Not Active
Ki [2]: Not Active
IC50 (Neutrophil elastase): Not Active

CC(C)NNC(=O)c1ccncc1 [IPRONIAZID]
IC50 (Vasopressin V1a receptor): Not Active
IC50 (D(3) dopamine receptor): Not Active
IC50 ([1]; cho-k1): Not Active
IC50 (Endothelin-1 receptor): Not Active
IC50 [2]: Not Active
Ki [2]: Not Active
IC50 (Neutrophil elastase): Not Active

Cc1c(OCC(F)(F)F)ccnc1C[S+]([O-])c1nc2ccccc2[nH]1 (configuration not stated) [LANSOPRAZOLE]
IC50 (Vasopressin V1a receptor): Not Active
IC50 (D(3) dopamine receptor): Not Active
IC50 ([1]; cho-k1): Not Active
IC50 (Endothelin-1 receptor): Not Active
IC50 [2]: Not Active
Ki [2]: Not Active
IC50 (Neutrophil elastase): Not Active

O=c1cc(N2CCOCC2)oc2c(-c3ccccc3)cccc12 [LY-294002]
IC50 (Vasopressin V1a receptor): Not Active
IC50 (D(3) dopamine receptor): Not Active
IC50 ([1]; cho-k1): Not Active
IC50 (Endothelin-1 receptor): Not Active
IC50 [2]: Not Active
Ki [2]: Not Active
IC50 (Neutrophil elastase): Not Active

COc1ccc2[nH]cc(CCNC(C)=O)c2c1 [MELATONIN]
IC50 (Vasopressin V1a receptor): Not Active
IC50 (D(3) dopamine receptor): Not Active
IC50 ([1]; cho-k1): Not Active
IC50 (Endothelin-1 receptor): Not Active
IC50 [2]: Not Active
Ki [2]: Not Active
IC50 (Neutrophil elastase): Not Active

CCN(CC)CCOCCC1=CCC2CC1C2(C)C (configuration not stated) [MYRTECAINE]
IC50 (Vasopressin V1a receptor): Not Active
IC50 (D(3) dopamine receptor): Not Active
IC50 ([1]; cho-k1): Not Active
IC50 (Endothelin-1 receptor): Not Active
IC50 [2]: Not Active
Ki [2]: Not Active
IC50 (Neutrophil elastase): Not Active

O=C(O)c1cccnc1Nc1cccc(C(F)(F)F)c1 [NIFLUMIC ACID]
IC50 (Vasopressin V1a receptor): Not Active
IC50 (D(3) dopamine receptor): Not Active
IC50 ([1]; cho-k1): Not Active
IC50 (Endothelin-1 receptor): Not Active
IC50 [2]: Not Active
Ki [2]: Not Active
IC50 (Neutrophil elastase): Not Active

O=C(N/N=C/c1ccc([N+](=O)[O-])o1)c1cc([N+](=O)[O-])cc([N+](=O)[O-])c1O [NIFURSOL]
IC50 (Vasopressin V1a receptor): Not Active
IC50 (D(3) dopamine receptor): Not Active
IC50 ([1]; cho-k1): Not Active
IC50 (Endothelin-1 receptor): Not Active
IC50 [2]: Not Active
Ki [2]: Not Active
IC50 (Neutrophil elastase): Not Active

COC(=O)Nc1nc2ccc(C(=O)c3cccs3)cc2[nH]1 [NOCODAZOLE]
IC50 (Vasopressin V1a receptor): Not Active
IC50 (D(3) dopamine receptor): Not Active
IC50 ([1]; read-out: IC50): 6.23 µM
Ki [1]: 4.95 µM
IC50 (Endothelin-1 receptor): Not Active
IC50 [2]: Not Active
Ki [2]: Not Active
IC50 (Neutrophil elastase): Not Active
